Source: patent US12234221B2, “Pyridine carboxamide compounds for inhibiting NAV1.8” (Lieber Institute, Inc., priority 2018, dated 2025)

Target: T1, human Nav1.8 (hNav1.8) ion channel (Homo sapiens, UniProt Q9Y5Y9)
T1 construct: expressed in transfected cells; host or cells: HEK293
Experiment: Nav1.8 channel inhibition, estimated IC50 (one or more of: fluorescence inhibition assay, PatchXpress, IonFlux HT automated patch clamp)
Type: cell-based
Settings: HEK293 cells stably expressing hNav1.8; method used per compound not stated; read-out: Activity range (estimated IC50)
Description: The ability of pyridine carboxamide derivatives exemplified above to inhibit the Nav1.8 channel was determined using one or more of the methods described below.
HEK Nav1.8 β1/β2 Stably Expressing Cell Line
A HEK293 cell line stably expressing the human Nav1.8 (hNav1.8) ion channel with β1/β2 subunits was constructed. The cell line is suitable for IC50 determination in fluorescence and electrophysiological based assays. It is also suitable to form mechanism of action pharmacology studies in electrophysiological assays. HEK293 Nav 1.8 cells are grown as adherent monolayers in DMEM/high glucose media, 10% fetal bovine serum, Na pyruvate (2 mM), Hepes (10 mM) with selection agents G418 (400 mg/L) and puromycin (0.5 mg/L) at 37 degrees C., 10% CO2.
Nav 1.8 Fluorescence Inhibition Assay
Compounds were made up to or supplied as a 10-mM stock solution using DMSO as the vehicle. Concentration-response curves were generated using a Matrix multichannel pipettor. Compound source plates were made by diluting 10 mM compound stocks to create 500 μM (100×) solutions in DMSO in 96-well v-bottom plates. Compounds were then serially diluted in 100% DMSO to generate a 5 point, 4-fold dilution scheme dose response curve. 2 μL of the 100× dose response curves was then added to preincubation and stimulation assay plates. 100 μL of pre-incubation buffer and 200 μL of stimulation buffer were then added to the plates resulting in a final assay test concentration range of 5 μM to 0.02 μM with a final DMSO concentration of 1%.
On the day of assay, plates were washed to remove cell culture media using 2K EBSS buffer (135 mM NaCl, 2 mM KCl, 5 mM Glucose, 2 mM CaCl2), 1 mM MgCl2, 10 mM HEPES, pH 7.4). The Na-sensitive fluorescent dye, Asante Natrium Green-2 (ANG-2) is incubated for 60 min to allow equilibration and then washed with 2K EBSS. Plates are the transferred to a fluorescence plate reader (FLIPR™, Molecular Devices) for fluorescence measurement using an excitation wavelength of 490 nm and an emission wavelength of 565 nm. Compounds are pre-incubated at for 5 min at final test concentration in the presence of ouabain (30 μM) to inhibit Na+ efflux through Na+/K+ exchanger. Following the pre-incubation phase, hNav1.8 channels are stimulated with 10 μM of the pyrethroid deltamethrin to prevent channel inactivation. The assay was run for 15 min with vehicle and 30 μM tetracaine serving as negative and positive controls, respectively. The peak change in fluorescence relative to negative and positive control wells was calculated and fit with a logistic equation to determine IC50.
PatchXpress Nav 1.8 Inhibition Assay
HEK-Nav1.8 β1/β2 cells were recorded in whole cell patch-clamp using the PatchXpress automated patch clamp platforms (Molecular Devices). Cells suspensions were obtained by trypsinization of adherent monolayers, followed by gentle rocking for minimally 30 min. Compounds were prepared from 10 mM DMSO stocks.
Nav1.8 channel variants were evaluated using Protocol 1 (FIG. 2) in which cells were initially voltage clamped at a holding potential of −100 mV to maintain Nav1.8 in a closed resting state. After current amplitude becomes stable, the mid-point voltage of steady state inactivation was determined for each cell using a series of 5 sec conditioning steps to increasingly depolarized voltages (−100 to 0 mV) The holding potential was then reset to a voltage that produces ˜50% inactivation (Vhalf−set automatically via PatchXpress scripts) so that closed and inactivated channel inhibition can be assessed. Protocol 1 was run at a frequency of 0.1 Hz until current amplitude is steady (automatically determined by PatchXpress scripts). The effect of test reagent on Nav current amplitude was monitored using custom PatchXpress stability scripts which determines the timing of compound addition and washout. Data were processed and analyzed using DataXpress 2.0 (Molecular Devices). […]

T1 sequence (Q9Y5Y9 whole entry): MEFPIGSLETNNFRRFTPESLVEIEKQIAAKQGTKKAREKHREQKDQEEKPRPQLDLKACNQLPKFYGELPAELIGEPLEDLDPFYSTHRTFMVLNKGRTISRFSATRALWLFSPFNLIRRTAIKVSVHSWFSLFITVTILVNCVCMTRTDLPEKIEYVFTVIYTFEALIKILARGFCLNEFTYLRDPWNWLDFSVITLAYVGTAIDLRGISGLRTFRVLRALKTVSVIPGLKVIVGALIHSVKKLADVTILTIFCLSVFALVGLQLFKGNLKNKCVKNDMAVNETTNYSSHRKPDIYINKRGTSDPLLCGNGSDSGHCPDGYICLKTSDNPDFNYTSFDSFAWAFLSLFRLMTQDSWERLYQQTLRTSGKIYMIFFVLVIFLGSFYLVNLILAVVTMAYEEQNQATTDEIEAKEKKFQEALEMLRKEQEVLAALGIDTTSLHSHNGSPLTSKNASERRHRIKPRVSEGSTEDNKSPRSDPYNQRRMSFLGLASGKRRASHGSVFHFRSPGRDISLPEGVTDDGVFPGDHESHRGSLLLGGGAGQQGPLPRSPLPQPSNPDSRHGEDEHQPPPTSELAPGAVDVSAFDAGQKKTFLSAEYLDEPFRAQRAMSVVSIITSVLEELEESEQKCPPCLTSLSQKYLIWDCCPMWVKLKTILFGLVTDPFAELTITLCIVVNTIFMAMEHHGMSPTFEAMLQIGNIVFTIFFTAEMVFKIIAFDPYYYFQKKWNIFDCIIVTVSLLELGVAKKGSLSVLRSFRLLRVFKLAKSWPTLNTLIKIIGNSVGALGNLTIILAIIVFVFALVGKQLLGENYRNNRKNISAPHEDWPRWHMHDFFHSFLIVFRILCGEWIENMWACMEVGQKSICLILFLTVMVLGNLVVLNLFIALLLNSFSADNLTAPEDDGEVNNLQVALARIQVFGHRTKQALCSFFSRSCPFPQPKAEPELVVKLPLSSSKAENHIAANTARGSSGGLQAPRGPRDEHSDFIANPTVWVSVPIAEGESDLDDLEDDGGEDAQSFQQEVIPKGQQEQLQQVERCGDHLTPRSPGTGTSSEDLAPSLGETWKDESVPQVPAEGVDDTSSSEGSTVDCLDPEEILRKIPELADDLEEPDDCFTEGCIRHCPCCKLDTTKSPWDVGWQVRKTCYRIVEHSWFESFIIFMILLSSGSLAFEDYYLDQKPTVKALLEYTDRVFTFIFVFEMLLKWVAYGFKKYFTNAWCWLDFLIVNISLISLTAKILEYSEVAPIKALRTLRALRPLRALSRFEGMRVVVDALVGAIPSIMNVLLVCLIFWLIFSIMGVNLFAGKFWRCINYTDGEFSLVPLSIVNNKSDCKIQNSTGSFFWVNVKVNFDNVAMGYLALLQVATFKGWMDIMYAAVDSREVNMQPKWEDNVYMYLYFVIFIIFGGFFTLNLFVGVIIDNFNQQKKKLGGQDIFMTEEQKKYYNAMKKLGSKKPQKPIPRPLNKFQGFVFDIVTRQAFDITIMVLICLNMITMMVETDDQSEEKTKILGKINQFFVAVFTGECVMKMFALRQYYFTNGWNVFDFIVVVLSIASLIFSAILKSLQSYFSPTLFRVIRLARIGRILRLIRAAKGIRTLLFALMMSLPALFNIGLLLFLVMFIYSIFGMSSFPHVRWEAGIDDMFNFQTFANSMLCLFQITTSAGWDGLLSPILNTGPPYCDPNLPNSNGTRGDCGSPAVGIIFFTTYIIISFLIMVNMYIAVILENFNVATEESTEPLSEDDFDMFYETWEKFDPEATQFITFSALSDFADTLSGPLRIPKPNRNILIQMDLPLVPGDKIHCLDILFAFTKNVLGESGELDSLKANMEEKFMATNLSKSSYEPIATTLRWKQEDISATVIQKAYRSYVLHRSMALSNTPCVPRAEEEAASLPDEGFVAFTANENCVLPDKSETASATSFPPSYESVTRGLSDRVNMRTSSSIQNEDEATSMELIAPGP

Compound | IC50 [µM]
CS(=O)(=O)c1cccc(NC(=O)c2cc(C(F)(F)F)cnc2Oc2cccc3scnc23)c1 [Example 58, 2-(1,3-benzothiazol-4-yloxy)-N-(3-methylsulfonyl-phenyl)-5-(trifluoromethyl)pyridine-3-carboxamide] | > 1
CS(=N)(=O)c1cccc(NC(=O)c2cc(C(F)(F)F)cnc2Oc2ccc(OC(F)F)cc2)c1 (centres unmarked) [Example 59, 2-[4-(difluoromethoxy)phenoxy]-N-[3-(methylsulfonimidoyl)phenyl]-5-(trifluoromethyl)pyridine-3-carboxamide] | < 0.5
CS(=N)(=O)c1cccc(NC(=O)c2cc(C(F)(F)F)cnc2Oc2ccc(F)cc2Cl)c1 (centres unmarked) [Example 60, 2-(2-chloro-4-fluoro-phenoxy)-N-[3-(methylsulfonimidoyl)phenyl]-5-(trifluoromethyl)pyridine-3-carboxamide] | < 0.5
COc1ccc(Oc2ncc(C(F)(F)F)cc2C(=O)Nc2cccc(S(C)(=N)=O)c2)c(Cl)c1 (centres unmarked) [Example 61, 2-(2-chloro-4-methoxy-phenoxy)-N-[3-(methylsulfonimidoyl)phenyl]-5-(trifluoromethyl)pyridine-3-carboxamide] | < 0.5
CS(=N)(=O)c1cccc(NC(=O)c2cc(C(F)(F)F)cnc2Oc2ccccc2Cl)c1 (centres unmarked) [Example 62, 2-(2-chlorophenoxy)-N-[3-(methylsulfonimidoyl)phenyl]-5-(trifluoromethyl)pyridine-3-carboxamide] | < 0.5
O=C(Nc1ccnnc1)c1cc(C(F)(F)F)cnc1Oc1ccc(Cl)cc1Cl [Example 63, 2-(2,4-dichlorophenoxy)-N-pyridazin-4-yl-5-(trifluoromethyl)pyridine-3-carboxamide] | 0.5 to 1
O=C(Nc1ccnnc1)c1cc(C(F)(F)F)cnc1Oc1ccc(OC(F)F)cc1 [Example 64, 2-[4-(difluoromethoxy)phenoxy]-N-pyridazin-4-yl-5-(trifluoromethyl)pyridine-3-carboxamide] | > 1
COc1ccc(Oc2ncc(C(F)(F)F)cc2C(=O)Nc2ccnnc2)c(Cl)c1 [Example 65, 2-(2-chloro-4-methoxy-phenoxy)-N-pyridazin-4-yl-5-(trifluoromethyl)pyridine-3-carboxamide] | > 1
COc1cc(F)ccc1Oc1nc(C(F)(F)F)ccc1C(=O)Nc1cccc(S(C)(=O)=O)c1 [Example 66, 2-(4-fluoro-2-methoxy-phenoxy)-N-(3-methylsulfonylphenyl)-6-(trifluoromethyl)pyridine-3-carboxamide] | < 0.5
COc1cc(F)ccc1Oc1cc(C(F)(F)F)ncc1C(=O)Nc1cccc(S(C)(=O)=O)c1 [Example 67, 4-(4-fluoro-2-methoxy-phenoxy)-N-(3-methylsulfonylphenyl)-6-(trifluoromethyl)pyridine-3-carboxamide] | < 0.5
COc1cc(F)ccc1Oc1cc(C(F)(F)F)ncc1C(=O)Nc1cccc([S+](C)[O-])c1 (centres unmarked) [Example 68, 4-(4-fluoro-2-methoxy-phenoxy)-N-(3-methylsulfinylphenyl)-6-(trifluoromethyl)pyridine-3-carboxamide] | < 0.5
COc1cc(F)ccc1Oc1cc(C(F)(F)F)ncc1C(=O)Nc1cc(S(C)(=O)=O)ccc1F [Example 69, 4-(4-fluoro-2-methoxy-phenoxy)-N-(2-fluoro-5-methylsulfonyl-phenyl)-6-(trifluoromethyl)pyridine-3-carboxamide] | < 0.5
CN=S(C)(=O)c1cccc(NC(=O)c2cnc(C(F)(F)F)cc2Oc2ccc(F)cc2OC)c1 (centres unmarked) [Example 70, N-[3-(N,S-dimethylsulfonimidoyl)phenyl]-4-(4-fluoro-2-methoxy-phenoxy)-6-(trifluoromethyl)pyridine-3-carboxamide] | < 0.5
COc1cc(F)ccc1Oc1cc(C(F)(F)F)ncc1C(=O)Nc1ccnnc1 [Example 71, 4-(4-fluoro-2-methoxy-phenoxy)-N-pyridazin-4-yl-6-(trifluoromethyl)pyridine-3-carboxamide] | < 0.5
